Experiment [1] concerns the target T1, Substance-P receptor (Homo sapiens, UniProt P25103). The conditions noted are these: UC11MG.
In experiment [2] the target is T1, Substance-P receptor. The experiment can be described thus: Binding affinity against human Tachykinin receptor 1 expressed in astrocytoma UC11MG cells using [125I]- SP radioligand. Type of experiment: cell-based.
In experiment [3] the test system is Endothelial cell. Description: Concentration required to produce cyclic GMP levels in postcapillary endothelial cells isolated from bovine heart (CVEC). The conditions noted are these: Bos taurus. Type of experiment: functional, cell-based.
Experiment [4] deals with Endothelial cell. Description: Concentration required to produce maximum stimulation in tritiated inositol monophosphate (IP1) level in postcapillary endothelial cells isolated from bovine heart (CVEC). The settings on record: Bos taurus. It counts as functional, cell-based.
The test system of experiment [5] is Endothelial cell. Description: Concentration required to produce maximum effect on postcapillary endothelial cells isolated from bovine heart (CVEC) proliferation. It counts as functional, cell-based. The settings on record: Bos taurus.
Experiment [6] deals with T1, Substance-P receptor. The experiment can be described thus: Inhibition of labeled SP total binding against human Tachykinin receptor 1 expressed in astrocytoma UC11MG cells by the second binding component. Type of experiment: cell-based.

SMILES strings stand for the structures.

T1 sequence (P25103 whole entry): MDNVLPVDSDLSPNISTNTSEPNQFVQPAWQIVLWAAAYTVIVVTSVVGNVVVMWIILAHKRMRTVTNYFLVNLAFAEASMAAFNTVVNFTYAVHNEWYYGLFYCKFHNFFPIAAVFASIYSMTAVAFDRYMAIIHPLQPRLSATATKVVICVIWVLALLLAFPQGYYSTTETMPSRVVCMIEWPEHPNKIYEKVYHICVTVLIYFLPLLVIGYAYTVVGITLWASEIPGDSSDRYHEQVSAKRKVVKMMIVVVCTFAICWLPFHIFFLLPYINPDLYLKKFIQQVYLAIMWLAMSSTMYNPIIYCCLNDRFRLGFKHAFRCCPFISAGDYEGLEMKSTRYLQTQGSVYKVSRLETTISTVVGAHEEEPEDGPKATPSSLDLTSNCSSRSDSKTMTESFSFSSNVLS

In experiment [1], `CNCc1nc2ccccc2c(-c2ccccc2)c1C(=O)NCc1cc(C(F)(F)F)cc(C(F)(F)F)c1` registered a Binding of 82%. For the same molecule, in experiment [2], the IC50 turned out to be 0.011 nM.
In the case of `CN(Cc1cc(C(F)(F)F)cc(C(F)(F)F)c1)C(=O)c1c(CO)nc2ccccc2c1-c1ccccc1`, in experiment [1], the Binding was 75%.
Consider `O=C(NCc1cc(C(F)(F)F)cc(C(F)(F)F)c1)c1cnc2ccccc2c1-c1ccccc1`, for which, in experiment [2], the IC50 is above 1000 nM.
With `CN(Cc1cc(C(F)(F)F)cc(C(F)(F)F)c1)C(=O)c1c(CN)nc2ccccc2c1-c1ccccc1`, in experiment [1], the Binding came to 100%. In experiment [2], the half-maximal inhibitory concentration (IC50) amounted to 9 nM.
Regarding `O=C(NCc1cc(C(F)(F)F)cc(C(F)(F)F)c1)c1c(CO)nc2ccccc2c1-c1ccccc1`, the Concentration in experiment [3] turned out to be 100 nM; in experiment [4], 1000 nM; in experiment [5] it was 0.1 nM. In experiment [1], this molecule returned a Binding of 100%. For the same molecule, the IC50 in experiment [2] was found to be 0.0001 nM.
For the molecule `CC(C)(C)[Si](C)(C)OCc1nc2ccccc2c(-c2ccccc2)c1C(=O)NCc1cc(C(F)(F)F)cc(C(F)(F)F)c1`, the Binding in experiment [1] was found to be 100%. In experiment [2], this molecule registered an IC50 of 17 nM.
In experiment [1], `Cc1nc2ccccc2c(-c2ccccc2)c1C(=O)NCc1cc(C(F)(F)F)cc(C(F)(F)F)c1` had a Binding of 78%. Besides, the IC50 stood at 0.075 nM in experiment [2] and 3900 nM in experiment [6].
In turn, `NCc1nc2ccccc2c(-c2ccccc2)c1C(=O)NCc1cc(C(F)(F)F)cc(C(F)(F)F)c1` registered a Binding in experiment [1] of 100%. The concentration for half-maximal inhibition (IC50) in experiment [2] was determined as 0.0017 nM.
The molecule `COCc1nc2ccccc2c(-c2ccccc2)c1C(=O)N(C)Cc1cc(C(F)(F)F)cc(C(F)(F)F)c1` showed a Binding in experiment [1] of 100%. The IC50 in experiment [2] stood at 11 nM.
`CN(C)Cc1nc2ccccc2c(-c2ccccc2)c1C(=O)NCc1cc(C(F)(F)F)cc(C(F)(F)F)c1` registered a Binding in experiment [1] of 40%. In addition, the IC50 in experiment [2] was found to be 0.22 nM; in experiment [6], 11 nM.
The molecule `CN(Cc1cc(C(F)(F)F)cc(C(F)(F)F)c1)C(=O)c1cnc2ccccc2c1-c1ccccc1` yielded a Binding in experiment [1] of 83%. The IC50 in experiment [2] turned out to be 0.03 nM.
As for `O=C(NCc1cc(C(F)(F)F)cc(C(F)(F)F)c1)c1c(CCl)nc2ccccc2c1-c1ccccc1`, the Binding in experiment [1] worked out at 57%. This molecule registered an IC50 in experiment [2] of 26 nM.
In experiment [1], `O=C(NCc1cc(C(F)(F)F)cc(C(F)(F)F)c1)c1c(CBr)nc2ccccc2c1-c1ccccc1` gave a Binding of 71%. This molecule also showed an IC50 in experiment [2] of 0.01 nM.
In experiment [2], `O=C(NCc1cc(C(F)(F)F)cc(C(F)(F)F)c1)c1c(CN2C(=O)c3ccccc3C2=O)nc2ccccc2c1-c1ccccc1` registered an IC50 above 1000 nM.
For `CN(Cc1cc(C(F)(F)F)cc(C(F)(F)F)c1)C(=O)c1c(CBr)nc2ccccc2c1-c1ccccc1`, the Binding in experiment [1] amounted to 100%. The molecule further returned an IC50 in experiment [2] of 52 nM.
As to `Ic1ccccc1CN[C@@H]1C2CCN(CC2)[C@@H]1C(c1ccccc1)c1ccccc1`, the Binding in experiment [1] was determined as 100%. Moreover, the concentration for half-maximal inhibition (IC50) in experiment [2] amounted to 1.6 nM.
In experiment [1], `CN(Cc1ccccc1)Cc1nc2ccccc2c(-c2ccccc2)c1C(=O)NCc1cc(C(F)(F)F)cc(C(F)(F)F)c1` came in with a Binding of 71%. In experiment [2], the 50% inhibitory concentration (IC50) is 180 nM.
In the case of `Cc1nc2ccccc2c(-c2ccccc2)c1C(=O)N(C)Cc1cc(C(F)(F)F)cc(C(F)(F)F)c1`, the Binding in experiment [1] amounted to 73%. For the same molecule, in experiment [2], the IC50 was found to be 3.1 nM.
`CN1CCN(Cc2nc3ccccc3c(-c3ccccc3)c2C(=O)NCc2cc(C(F)(F)F)cc(C(F)(F)F)c2)CC1` yielded an IC50 in experiment [2] above 1000 nM.

By IC50 is commonly meant the concentration at which inhibition is half-maximal.

The record behind these values is ChEMBL document CHEMBL1149088, “A non-peptide NK1 receptor agonist showing subpicomolar affinity” (J Med Chem, 2004).
